The text below walks through data of US11130769B2 (Prelude Therapeutics Incorporated, priority 2018, dated 2021).

Read-outs that look alike come from different tables or passages of the source. Bounds are passed on as bounds.

In assay [1] the target is MCL-1 (Homo sapiens (Human), UniProt Q07820). The experiment in a line: Cell free Mcl-1:Bim affinity assay (fluorescence polarization competition). Format: binding. The note with it: 15 nM MCL-1, 5 nM FITC-Bim, 1 hour at room temperature, read-out: BIM_Ki. As for the experimental part:
The binding affinity of each compound was measured via a fluorescence polarization competition assay, in which the compound competes for the same binding site with the ligand, and thus leads to a dose-dependent anisotropy reduction. The tracer ligand utilized was a fluorescein isothiocyanate labelled peptide (FITC-[…]) derived from Bim (GenScript).
The assay was carried out in black half-area 96-well NBS plate (Corning), containing 15 nM of MCL-1 (BPS Bioscience), 5 nM of FITC-Bim and 3-fold serial diluted test compounds in a total volume of 50 μL of assay buffer (20 mM HEPES, 50 mM NaCl, 0.002% Tween 20, 1 mM TCEP, and 1% DMSO). The reaction plate was incubated for 1 hour at room temperature. The change of anisotropy is measured with an Envision multimode plate reader (PerkinElmer) at emission wavelength 535 nm. Fluorescence polarization was calculated in mP unit and the percentage inhibition was calculated by % inhibition=100×(mPDMSO−mP)/(mPDMSO−mPPC), in which mPDMSO is the DMSO control, and mPpc is the positive control. IC50 values were determined from a 10-point dose response curve by fitting the percent inhibition against compound concentration using the GraphPad Prism software. The inhibition constant Ki was subsequently calculated according to the Nikolovska-Coleska's equation (Anal. Biochem., 2004, 332, 261),
[formula] • where [I]50 is the concentration of the free inhibitor at 50% inhibition, [L]50 is the concentration of the free labeled ligand at 50% inhibition, [P]0 is the concentration of the free protein at 0% inhibition, and Kd is the dissociation constant of the protein-ligand complex. See Table F. Caspase 3/7 Activity Assay
In general terms: In fluorescence polarisation assays a small probe gives low polarisation when free and higher when bound to something large.

Assay [2] deals with H929 cells. The assay can be described thus: Cell viability assay (H929 10 FBS). Format: cell-based. To be noted: Homo sapiens, NCI-H929, 24 hours, read-out: H929_10FBS IC50. As to the method: Cell Viability Assay (H929 10 FBS)
Dispense 10 μL aliquot of prepared H929 cells (1:1 ratio of cells:Trypan Blue (#1450013, Bio-Rad)) onto cell counting slide (#145-0011, Bio-Rad) and obtain cell density and cell viability using cell counter (TC20, Bio-Rad). Remove appropriate volume of resuspended cells from culture flask to accommodate 4000 cells/well @ 10 μL/well. Transfer H929 cells to 50 mL conical (#430290, Corning). Spin down at 1000 rpm for 5 min using tabletop centrifuge (SPINCHRON 15, Beckman). Discard supernatant and resuspend cell pellet in modified RPMI 1640 (#10-040-CV, Corning) cell culture media containing 10% FBS (F2422-500 ML, Sigma), sodium pyruvate (100 mM) (#25-000-CL, Corning), HEPES buffer (1 M) (#25-060-CL, Corning) and glucose (200 g/L) (A24940-01, Gibco) to a cell density of 400,000 cells/mL. Dispense 10 μL of resuspended H929 cells per well in 384-well small volume TC treated plate (#784080, Greiner Bio-one) using standard cassette (#50950372, Thermo Scientific) on Multi-drop Combi (#5840310, Thermo Scientific) in laminar flow cabinet. Dispense compounds onto plates using digital liquid dispenser (D300E, Tecan). Incubate plates in humidified tissue culture incubator @ 37° C. for 24 hours. Add 10 μL of prepared CellTiTer-Glo® detection buffer (G7570, Promega) or ATPlite 1 Step detection reagent (#6016731, Perkin Elmer) to each well of 384-well plate using small tube cassette (#24073295, Thermo Scientific) on Combi multi drop, incubate @ RT for 30-60 min. Read plates with microplate reader (PheraStar, BMG Labtech) using 384 well luminescence mode.

Sequence of MCL-1 (Q07820 whole entry): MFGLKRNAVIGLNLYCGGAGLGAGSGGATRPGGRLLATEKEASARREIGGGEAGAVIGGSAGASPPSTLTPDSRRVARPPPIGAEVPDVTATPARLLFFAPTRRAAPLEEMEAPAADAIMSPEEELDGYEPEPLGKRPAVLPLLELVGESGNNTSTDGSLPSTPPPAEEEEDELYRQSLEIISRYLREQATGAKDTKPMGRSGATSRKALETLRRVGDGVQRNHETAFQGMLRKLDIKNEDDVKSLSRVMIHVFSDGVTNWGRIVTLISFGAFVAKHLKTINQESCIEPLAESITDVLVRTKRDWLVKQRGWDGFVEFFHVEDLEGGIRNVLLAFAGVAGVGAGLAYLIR

Broadly, the IC50 is the concentration at which inhibition is half-maximal. As for `CC1(C)OC/C=C/[C@H](OC(=O)N2CCC(F)(F)C2)[C@@H]2CC[C@H]2CN2C[C@@]3(CCCc4cc(Cl)ccc43)COc3ccc(cc32)S(=O)(=O)NC1=O` [Example 166, [(3R,6R,7S,8E,22S)-6′-Chloro-12,12-dimethyl-13,15,15-trioxo-spiro[11,20-dioxa-15-thia-1,14-diazatetracyclo[14.7.2.03,6.019,24]pentacosa-8,16,18,24-tetraene-22,1′-tetralin]-7-yl] 3,3-difluoropyrrolidine-1-carboxylate], the Ki in assay [1] (class symbols) was < 1 nM. For the same compound, the IC50 in assay [2] is < 500 nM.
Turning to `CC1(C)OC/C=C/[C@H](OCC(=O)N[C@@H]2CCOC2)[C@@H]2CC[C@H]2CN2C[C@@]3(CCCc4cc(Cl)ccc43)COc3ccc(cc32)S(=O)(=O)NC1=O` [Example 284, 2-[(3R,6R,7S,8E,22S)-6′-Chloro-12,12-dimethyl-13,15,15-trioxo-spiro[11,20-dioxa-15λ6-thia-1,14-diazatetracyclo[14.7.2.03,6.019,24]pentacosa-8,16,18,24-tetraene-22,1′-tetralin]-7-yl]oxy-N-[(3R)-tetrahydrofuran-3-yl]acetamide], in assay [1] (class symbols), the Ki was < 1 nM. For the same compound, the concentration for half-maximal inhibition (IC50) in assay [2] was < 500 nM.
Consider `CC1(C)OC/C=C/[C@H](OC(=O)NCC(F)F)[C@@H]2CC[C@H]2CN2C[C@@]3(CCCc4cc(Cl)ccc43)COc3ccc(cc32)S(=O)(=O)NC1=O` [Example 179, [(3R,6R,7S,8E,22S)-6′-Chloro-12,12-dimethyl-13,15,15-trioxo-spiro[11,20-dioxa-15-thia-1,14-diazatetracyclo[14.7.2.03,6.019,24]pentacosa-8,16,18,24-tetraene-22,1′-tetralin]-7-yl] N-(2,2-difluoroethyl)carbamate], for which, in assay [1] (class symbols), the Ki was < 1 nM. Also, the 50% inhibitory concentration (IC50) in assay [2] was < 500 nM.
The matching figures for `CC1(C)OC/C=C/[C@H](OC(=O)N2CC3CCC(C2)O3)[C@@H]2CC[C@H]2CN2C[C@@]3(CCCc4cc(Cl)ccc43)COc3ccc(cc32)S(=O)(=O)NC1=O` [Example 170, [(3R,6R,7S,8E,22S)-6′-Chloro-12,12-dimethyl-13,15,15-trioxo-spiro[11,20-dioxa-15-thia-1,14-diazatetracyclo[14.7.2.03,6.019,24]pentacosa-8,16,18,24-tetraene-22,1′-tetralin]-7-yl] 8-oxa-3-azabicyclo[3.2.1]octane-3-carboxylate]: < 1 nM and < 1000 nM.
As to `COCCN1CCCN(CCO[C@H]2/C=C/CN(C)C(C)(C)C(=O)NS(=O)(=O)c3ccc4c(c3)N(C[C@@H]3CC[C@H]32)C[C@@]2(CCCc3cc(Cl)ccc32)CO4)CC1` [Example 277, (3R,6R,7S,8E,22S)-6′-Chloro-7-[2-[4-(2-methoxyethyl)-1,4-diazepan-1-yl]ethoxy]-11,12,12-trimethyl-15,15-dioxo-spiro[20-oxa-15-thia-1,11,14-triazatetracyclo[14.7.2.03,6.019,24]pentacosa-8,16,18,24-tetraene-22,1′-tetralin]-13-one], the Ki in assay [1] (class symbols) was in the range of 1 to 100 nM. In addition, the IC50 in assay [2] is > 1000 nM.
For the compound `CN(C)C1CN(C(=O)O[C@H]2/C=C/COC(C)(C)C(=O)NS(=O)(=O)c3ccc4c(c3)N(C[C@@H]3CC[C@H]32)C[C@@]2(CCCc3cc(Cl)ccc32)CO4)C1` [Example 52, [(3R,6R,7S,8E,22S)-6′-Chloro-12,12-dimethyl-13,15,15-trioxo-spiro[11,20-dioxa-15-thia-1,14-diazatetracyclo[14.7.2.03,6.019,24]pentacosa-8,16,18,24-tetraene-22,1′-tetralin]-7-yl] 3-(dimethylamino)azetidine-1-carboxylate], the Ki in assay [1] (class symbols) was < 1 nM. Moreover, the concentration for half-maximal inhibition (IC50) in assay [2] is < 500 nM.
Consider `CC(C)(C)OC(=O)N1CCC[C@H](OC(=O)NS(=O)(=O)c2ccc3c(c2)N(CC2CCC2)CC2(CCCc4cc(Cl)ccc42)CO3)C1` (stereo partly drawn) [Example 23, tert-Butyl (3S)-3-[[6′-chloro-5-(cyclobutylmethyl)spiro[2,4-dihydro-1,5-benzoxazepine-3,1′-tetralin]-7-yl]sulfonylcarbamoyloxy]piperidine-1-carboxylate], for which the Ki in assay [1] (numeric values) stood at 73.6 nM. The IC50 in assay [2] was > 1000 nM.
With `CO[C@H]1/C=C/CCCCC(=O)NS(=O)(=O)c2ccc3c(c2)N(C[C@@H]2CC[C@H]21)C[C@@]1(CCCc2cc(Cl)ccc21)CO3` [Example 83, (3R,6R,7S,8E,23S)-6′-Chloro-7-methoxy-16,16-dioxo-spiro[21-oxa-16-thia-1,15-diazatetracyclo[15.7.2.03,6.020,25]hexacosa-8,17,19,25-tetraene-23,1′-tetralin]-14-one], the Ki in assay [1] (class symbols) is 1 to 100 nM. Further, in assay [2], the IC50 was > 1000 nM.
`O=C1Cc2cccc(c2)SC[C@@H]2CCC2CN2CC3(CCCc4cc(Cl)ccc43)COc3ccc(cc32)S(=O)(=O)N1` (stereo partly drawn) [Example 25, (1S,1′R,2′R)-6-Chloro-3,4-dihydro-2H-spiro[naphthalene-1,3′-5,10-dithia-9-aza-1(5,7)-benzo[b][1,4]oxazepina-6(1,3)-benzena-3(1,2)-cyclobutanacyclodecaphan]-8′-one 10′,10′-dioxide]: the Ki in assay [1] (numeric values) turned out to be 9 nM. Moreover, in assay [2], the IC50 was > 1000 nM.
Take `CN(C)C(=O)O[C@H]1/C=C/CN(C)C(C)(C)C(=O)NS(=O)(=O)c2ccc3c(c2)N(C[C@@H]2CC[C@H]21)C[C@@]1(CCCc2cc(Cl)ccc21)CO3` [Example 44, [(3R,6R,7S,8E,22S)-6′-chloro-11,12,12-trimethyl-13,15,15-trioxo-spiro[20-oxa-15-thia-1,11,14-triazatetracyclo[14.7.2.03,6.019,24]pentacosa-8,16,18,24-tetraene-22,1′-tetralin]-7-yl] N,N-dimethylcarbamate]: the Ki in assay [1] (class symbols) is < 1 nM. In assay [2], the concentration for half-maximal inhibition (IC50) was < 500 nM.
On to `O=C1NS(=O)(=O)c2ccc3c(c2)N(C[C@@H]2CC[C@H]2[C@@H](O)/C=C/COC12CC2)C[C@@]1(CCCc2cc(Cl)ccc21)CO3` [Example 40, (3R,6R,7S,8E,22S)-6′-Chloro-7-hydroxy-12,12-ethylene-15,15-dioxo-spiro[11,20-dioxa-15-thia-1,14-diazatetracyclo[14.7.2.03,6.019,24]pentacosa[8,16(25),17,19(24)]tetraene-22,1′-tetralin]-13-one], for which the Ki in assay [1] (class symbols) is < 1 nM. In addition, in assay [2], the concentration for half-maximal inhibition (IC50) was < 500 nM.
With `CNC(=O)O[C@H]1/C=C/COC(C)(C)C(=O)NS(=O)(=O)c2ccc3c(c2)N(C[C@@H]2CC[C@H]21)C[C@@]1(CCCc2cc(Cl)ccc21)CO3` [Example 50, [(3R,6R,7S,8E,22S)-6′-Chloro-12,12-dimethyl-13,15,15-trioxo-spiro[11,20-dioxa-15-thia-1,14-diazatetracyclo[14.7.2.03,6.019,24]pentacosa-8,16,18,24-tetraene-22,1′-tetralin]-7-yl] N-methylcarbamate], in assay [1] (class symbols), the Ki is < 1 nM. Further, in assay [2], the 50% inhibitory concentration (IC50) is < 500 nM.
Turning to `CN(C)C(=O)O[C@H]1/C=C/CN(C)C2(CCC2)C(=O)NS(=O)(=O)c2ccc3c(c2)N(C[C@@H]2CC[C@H]21)C[C@@]1(CCCc2cc(Cl)ccc21)CO3` [Example 48, [(3R,6R,7R,8E,22S)-6′-Chloro-11-methyl-12,12-(1,3-propylene)-13,15,15-trioxo-spiro[20-oxa-15-thia-1,11,14-triazatetracyclo[14.7.2.03,6.019,24]pentacosa-8,16,18,24-tetraene-22,1′-tetralin]-7-yl] N,N-dimethylcarbamate], the Ki in assay [1] (class symbols) is < 1 nM. For the same compound, the IC50 in assay [2] is < 500 nM.
